Measured values reported in ChEMBL document CHEMBL6092174, “Synthesis and anti-influenza virus activity of substituted dibenzoxepine-based baloxavir derivatives” (Eur J Med Chem, 2024).
Activity calls are given as the source filed them. The calls are words filed in the database; no cut-off is given here.

Assays:
Influenza A virus [1] = assay: Antiviral activity against Influenza A virus H3N2 (A/Aichi/2/68) infected in dog MDCK cells assessed as reduction in cytopathic effect incubated for 2 days; format: functional, organism-based; details: 48 h
[2] = Cytotoxicity against dog MDCK cells assessed as reduction in cell viability incubated for 2 days by CCK-8 assay; format: toxicity, cell-based, Canis lupus familiaris; details: time 2 day
[3] = Selectivity index, ratio of CC50 for cytotoxicty against MDCK cells to EC50 for antiviral activity against Influenza A virus H3N2 (A/Aichi/2/68) infected in dog MDCK cells; format: toxicity, cell-based; details: read-out: Selectivity Index
[4] = Metabolic stability in human liver microsomes assessed as half life at 1 uM in presence of NADPH by LC-MS/MS analysis; format: ADME, Microsome; details: time 60 min
Influenza A virus [5] = assay: Antiviral activity against Influenza A virus H1N1(A/Puetro Rico/8/34) infected in dog MDCK cells assessed as reduction in cytopathic effect incubated for 2 days; format: functional, organism-based; details: 48 h
Influenza B virus = assay: Antiviral activity against Influenza B virus IBV/Lee/40 infected in dog MDCK cells assessed as reduction in cytopathic effect incubated for 2 days by TCID50 method; format: functional, organism-based; details: IBV/Lee/40, MDCK, 48 h
[6] = Metabolic stability in mouse liver microsomes assessed as half life at 1 uM in presence of NADPH by LC-MS/MS analysis; format: ADME, Microsome; details: time 60 min
[7] = Metabolic stability in human liver microsomes assessed as intrinsic clearance at 1 uM incubated for 60 mins in presence of NADPH by LC-MS/MS analysis; format: ADME, Microsome; details: 1 h
[8] = Metabolic stability in mouse liver microsomes assessed as intrinsic clearance at 1 uM incubated for 60 mins in presence of NADPH by LC-MS/MS analysis; format: ADME, Microsome; details: 1 h
[9] = Half life in CD-1 mouse at 15 mg/kg, po measured upto 24 hrs by LC-MS/MS analysis; format: ADME, organism-based; details: in vivo
[10] = Half life in CD-1 mouse at 1 mg/kg, iv measured upto 24 hrs by LC-MS/MS analysis; format: ADME, organism-based; details: in vivo
[11] = Tmax in CD-1 mouse at 15 mg/kg, po measured upto 24 hrs by LC-MS/MS analysis; format: ADME, organism-based; details: in vivo
[12] = Tmax in CD-1 mouse at 1 mg/kg, iv measured upto 24 hrs by LC-MS/MS analysis; format: ADME, organism-based; details: in vivo
[13] = Cmax in CD-1 mouse at 15 mg/kg, po measured upto 24 hrs by LC-MS/MS analysis; format: ADME, organism-based; details: in vivo
[14] = Cmax in CD-1 mouse at 1 mg/kg, iv measured upto 24 hrs by LC-MS/MS analysis; format: ADME, organism-based; details: in vivo
[15] = MRT (0 to infinity) in CD-1 mouse at 15 mg/kg, po measured upto 24 hrs by LC-MS/MS analysis; format: ADME, organism-based; details: in vivo
[16] = MRT (0 to infinity) in CD-1 mouse at 1 mg/kg, iv measured upto 24 hrs by LC-MS/MS analysis; format: ADME, organism-based; details: in vivo
HEK293T [17] = assay: Inhibition of Influenza A virus RdRp transfected in HEK293T co-expressing PB1/PB2/PA/NP/firefly luciferase/Renilla luciferase at 1 nM incubated for 24 hrs relative to control; format: cell-based
Influenza A virus [18] = assay: Potency index, ratio of baloxavir EC50 to test compound EC50 for antiviral activity against Influenza A virus H3N2 (A/Aichi/2/68) infected in dog MDCK cells assessed as reduction in cytopathic effect incubated for 2 days; format: functional; details: time 2 day
Influenza A virus [19] = assay: Antiviral activity against Influenza A virus H1N1(A/FM/1/47) infected in dog MDCK cells assessed as reduction in cytopathic effect incubated for 2 days; format: functional, organism-based; details: 48 h
[20] = AUC (0 to infinity) in CD-1 mouse at 15 mg/kg, po measured upto 24 hrs by LC-MS/MS analysis; format: ADME, organism-based; details: in vivo
[21] = AUC (0 to infinity) in CD-1 mouse at 1 mg/kg, iv measured upto 24 hrs by LC-MS/MS analysis; format: ADME, organism-based; details: in vivo
[22] = Oral bioavailability in CD-1 mouse at 15 mg/kg measured upto 24 hrs by LC-MS/MS analysis; format: ADME, organism-based; details: in vivo
Influenza A virus [23] = assay: Antiviral activity against Influenza A virus H1N1 infected in dog MDCK cells assessed as reduction in polymerase acidic protein expression at 10 to 20 nM by Western blot analysis; format: functional, organism-based; details: dose 10-20 nM
Influenza A virus [24] = assay: Antiviral activity against Influenza A virus H1N1 infected in dog MDCK cells assessed as disruption of nuclear protein expression at 10 to 20 nM by Western blot analysis; format: functional, organism-based; details: dose 10-20 nM
HEK293T [25] = assay: Inhibition of Influenza A virus RdRp transfected in HEK293T co-expressing PB1/PB2/PA/NP/firefly luciferase/Renilla luciferase incubated for 24 hrs relative to control; format: cell-based; details: dose or concentration not given here

## CCOC(=O)Cc1ccc2c(c1)[C@H](N1[C@@H]3COCCN3C(=O)c3c(O)c(=O)ccn31)c1ccccc1CO2
Influenza A virus [1]
  EC50: 36 nM
[2]
  CC50 at 48 h: > 50000 nM
[3]
  selectivity ratio: > 1390

## O=C1c2c(O)c(=O)ccn2N([C@@H]2c3ccc(F)cc3COc3ccccc32)[C@@H]2COCCN12
Influenza A virus [1]
  EC50: 2.5 nM
[2]
  CC50 at 48 h: 35200 nM
[3]
  selectivity ratio: 14100

## O=C1c2c(O)c(=O)ccn2N([C@@H]2c3ccccc3COc3c2ccc(F)c3F)[C@@H]2COCCN12
Influenza A virus [1]
  EC50: 1.64 nM
[2]
  CC50 at 48 h: 22100 nM
[3]
  selectivity ratio: 13500

## O=C1c2c(O)c(=O)ccn2N([C@@H]2c3ccccc3OCc3c2ccc(F)c3F)[C@@H]2COCCN12
Influenza A virus [1]
  EC50: 1.68 nM
[2]
  CC50 at 48 h: 19100 nM
[3]
  selectivity ratio: 11400

## N#Cc1ccc2c(c1)COc1ccccc1[C@@H]2N1[C@@H]2COCCN2C(=O)c2c(O)c(=O)ccn21
Influenza A virus [1]
  EC50: 8.79 nM
[2]
  CC50 at 48 h: > 50000 nM
[3]
  selectivity ratio: > 5690

## O=C1c2c(O)c(=O)ccn2N([C@@H]2c3ccccc3COc3cc(C(F)(F)F)ccc32)[C@@H]2COCCN12
Influenza A virus [1]
  EC50: 17.2 nM
[2]
  CC50 at 48 h: > 50000 nM
[3]
  selectivity ratio: > 2910

## O=C1c2c(O)c(=O)ccn2N([C@@H]2c3ccccc3SCc3c2ccc(F)c3F)[C@@H]2COCCN12 [BALOXAVIR]
[4]
  half-life at 1 µM: 3.03 h
[2]
  CC50 at 48 h: 9300 nM
Influenza A virus [5]
  EC50: 1.85 nM
Influenza B virus
  EC50: 2.02 nM
[6]
  half-life at 1 µM: 2.68 h
[7]
  CLint: 7.6 µL/min/mg
[8]
  CLint: 8.6 µL/min/mg
[9]
  half-life: 3.78 h
[10]
  half-life: 2.8 h
[11]
  Tmax: 1.67 h
[12]
  Tmax: 4.8 min
[13]
  Cmax: 523 ng/mL
[14]
  Cmax: 205 ng/mL
[15]
  MRT inf: 4.63 h
[16]
  MRT inf: 3 h
HEK293T [17]
  inhibition: 76.9%

## O=C(O)Cc1ccccc1Nc1c(Cl)cccc1Cl [DICLOFENAC]
[4]
  half-life at 1 µM: 0.0938 h
[6]
  half-life at 1 µM: 0.672 h
[7]
  CLint: 246 µL/min/mg
[8]
  CLint: 34.4 µL/min/mg

## CCOC(=O)Cc1ccc2c(c1)[C@@H](N1[C@@H]3COCCN3C(=O)c3c(O)c(=O)ccn31)c1ccccc1CO2
Influenza A virus [1]
  EC50: 705 nM
[2]
  CC50 at 48 h: > 50000 nM
[3]
  selectivity ratio: > 71

## O=C1c2c(O)c(=O)ccn2N([C@@H]2c3ccccc3COc3ccccc32)[C@@H]2COCCN12
Influenza A virus [1]
  EC50: 1.75 nM
[2]
  CC50 at 48 h: > 50000 nM
[3]
  selectivity ratio: > 28600

## O=C1c2c(O)c(=O)ccn2N([C@H]2c3ccccc3COc3c2ccc(F)c3F)[C@@H]2COCCN12
Influenza A virus [1]
  EC50: 5.16 nM
[2]
  CC50 at 48 h: 33300 nM
[3]
  selectivity ratio: 6460

## O=C1c2c(O)c(=O)ccn2N([C@H]2c3ccccc3OCc3c(Cl)cccc32)[C@@H]2COCCN12
Influenza A virus [1]
  EC50: 0.67 nM
[2]
  CC50 at 48 h: 15600 nM
[3]
  selectivity ratio: 23200

## O=C1c2c(O)c(=O)ccn2N([C@H]2c3ccccc3COc3cc(C(F)(F)F)ccc32)[C@@H]2COCCN12
Influenza A virus [1]
  EC50: 24.9 nM
[2]
  CC50 at 48 h: > 50000 nM
[3]
  selectivity ratio: > 2010

## O=C1c2c(O)c(=O)ccn2N([C@H]2c3ccccc3COc3ccccc32)[C@@H]2COCCN12
Influenza A virus [1]
  EC50: 1.06 nM
[2]
  CC50 at 48 h: > 50000 nM
[3]
  selectivity ratio: > 47200

## O=C1c2c(O)c(=O)ccn2N([C@@H]2c3ccccc3OCc3c(Cl)cccc32)[C@@H]2COCCN12
[4]
  half-life at 1 µM: 2.57 h
Influenza A virus [1]
  EC50: 0.78 nM
[2]
  CC50 at 48 h: 24600 nM
[3]
  selectivity ratio: 31600
Influenza A virus [18]
  Ratio: >5
Influenza A virus [5]
  EC50: 14.4 nM
Influenza A virus [19]
  EC50: 6.1 nM
Influenza B virus
  EC50: 2.32 nM
[6]
  half-life at 1 µM: 2.27 h
[7]
  CLint: 9 µL/min/mg
[8]
  CLint: 10.2 µL/min/mg
[9]
  half-life: 4.45 h
[10]
  half-life: 1.99 h
[11]
  Tmax: 2.67 h
[12]
  Tmax: 4.8 min
[13]
  Cmax: 222 ng/mL
[14]
  Cmax: 258 ng/mL
[20]
  AUC(0-inf): 1680 ng·h/mL
[21]
  AUC(0-inf): 355 ng·h/mL
[15]
  MRT inf: 6.25 h
[16]
  MRT inf: 2.57 h
[22]
  bioavailability: 31.5%
Influenza A virus [23]
  Activity: Active
Influenza A virus [24]
  Activity: Active
HEK293T [25]
  inhibition: 72%

## N#Cc1ccc2c(c1)COc1ccccc1[C@H]2N1[C@@H]2COCCN2C(=O)c2c(O)c(=O)ccn21
Influenza A virus [1]
  EC50: 9.43 nM
[2]
  CC50 at 48 h: > 50000 nM
[3]
  selectivity ratio: > 5300

## O=C1c2c(O)c(=O)ccn2N([C@H]2c3ccccc3OCc3c2ccc(F)c3F)[C@@H]2COCCN12
Influenza A virus [1]
  EC50: 2.08 nM
[2]
  CC50 at 48 h: 33000 nM
[3]
  selectivity ratio: 15900

## O=C1c2c(O)c(=O)ccn2N([C@H]2c3ccccc3OCc3c(F)cccc32)[C@@H]2COCCN12
Influenza A virus [1]
  EC50: 7.82 nM
[2]
  CC50 at 48 h: > 50000 nM
[3]
  selectivity ratio: > 6390

## O=C1c2c(O)c(=O)ccn2N([C@H]2c3ccccc3COc3cc(F)ccc32)[C@@H]2COCCN12
Influenza A virus [1]
  EC50: 1.17 nM
[2]
  CC50 at 48 h: > 50000 nM
[3]
  selectivity ratio: > 42700

## O=C1c2c(O)c(=O)ccn2N([C@@H]2c3ccccc3COc3cc(F)ccc32)[C@@H]2COCCN12
Influenza A virus [1]
  EC50: 3.91 nM
[2]
  CC50 at 48 h: > 50000 nM
[3]
  selectivity ratio: > 12800

## O=C1c2c(O)c(=O)ccn2N([C@@H]2c3ccccc3OCc3c(F)cccc32)[C@@H]2COCCN12
Influenza A virus [1]
  EC50: 8.41 nM
[2]
  CC50 at 48 h: > 50000 nM
[3]
  selectivity ratio: > 5940

## O=C1c2c(O)c(=O)ccn2N([C@H]2c3ccc(F)cc3COc3ccccc32)[C@@H]2COCCN12
[4]
  half-life at 1 µM: 11.6 h
Influenza A virus [1]
  EC50: 0.78 nM
[2]
  CC50 at 48 h: > 50000 nM
[3]
  selectivity ratio: > 64100
Influenza A virus [18]
  Ratio: >5
Influenza A virus [5]
  EC50: 3.32 nM
Influenza A virus [19]
  EC50: 1.65 nM
Influenza B virus
  EC50: 2.12 nM
[6]
  half-life at 1 µM: 2.45 h
[7]
  CLint: 2 µL/min/mg
[8]
  CLint: 9.4 µL/min/mg
[9]
  half-life: 2.83 h
[10]
  half-life: 2.6 h
[11]
  Tmax: 1.33 h
[12]
  Tmax: 4.8 min
[13]
  Cmax: 548 ng/mL
[14]
  Cmax: 211 ng/mL
[20]
  AUC(0-inf): 2790 ng·h/mL
[21]
  AUC(0-inf): 343 ng·h/mL
[15]
  MRT inf: 4 h
[16]
  MRT inf: 2.91 h
[22]
  bioavailability: 54.3%
Influenza A virus [23]
  Activity: Active
Influenza A virus [24]
  Activity: Active
HEK293T [25]
  inhibition: 82.6%
